Columns and labels:
[1] = system: thymus gland; conditions: rat, in vivo, sc
Protocol: The compounds to be tested for thymolytic activity including a hydrocortisone (HC) standard, were prepared in three or more concentrations by suspension in a sodium carboxymethyl-cellulose vehicle. Animals received the test materials by subcutaneous injection of 0.5 ml of the suspension on each of three successive days. Four hours following the final injection, the rats were sacrificed and the thymus gland of each animal removed and weighed. These weights are then employed to establish dose-response graphs by methods known in the art.

[2] = system: normal adult human subjects (vasoconstriction); experiment: topical anti-inflammatory activity, modified Stoughton/McKenzie vasoconstriction assay in humans; format: in vivo
From the text: The compounds of Formula (I) where R is alkyl of 1-6 carbon atoms, haloalkyl of 1-6 carbons or phenyl or benzyl optionally substituted on the phenyl ring with alkyl of 1-4 carbons, alkoxy of 1-4 carbons or halo and R^1, R^2, X^1, X^2, X^3 and X^4 are as defined in the broadest aspect of the invention are useful for the relief of inflamed conditions in mammals, and more specifically are useful for relieving inflammatory manifestations of corticosteroid responsive dermatoses. Initial approximation of anti-inflammatory activity is done by following the procedure of McKenzie, S. W. and Stoughton, R. B., "Methods for Comparing Percutaneous Absorption of Steroids" Arch Dermat, 86, (1962) or modifications thereof.
The topical anti-inflammatory activity potential for each compound was assayed using a modified Stoughton/-McKenzie vaso-constriction assay in humans, V. A. Place, et al, Arch. Dermat. 101, 531-537 (1970). Eight normal adult human subjects were treated on each forearm by topical administration with alcohol solutions containing 1×10^-5 and 1×10^-6 g/ml of each of the compounds to provide 64 total test sites for each compound in a series (32 for each concentration). […] Twenty-four hours after application, the presence of vasoconstriction is noted by visual examination, and expressed as the number of sites responding (vasoconstriction). […]

[3] = therapeutic advantage (topical potency versus systemic activity); format: in vivo; conditions: in words
Protocol: The topical anti-inflammatory activity potential for each compound was assayed using a modified Stoughton/-McKenzie vaso-constriction assay in humans, V. A. Place, et al, Arch. […]. 101, 531-537 (1970). Eight normal adult human subjects were treated on each forearm by topical administration with alcohol solutions containing 1×10^-5 and 1×10^-6 g/ml of each of the compounds to provide 64 total test sites for each compound in a series (32 for each concentration). Areas of the subjects' forearms were outlined by a rubber stamp grid coated with silicone grease, and 10 microliters are applied per 7×7 mm square site. After the preparations have dried, the areas on each forearm are covered with Saran® wrap and the margins sealed with tape. The occlusive wrap is removed after 18 hours. Twenty-four hours after application, the presence of vasoconstriction is noted by visual examination, and expressed as the number of sites responding (vasoconstriction). Fluocinolone acetonide is used as a standard. Also, the intensity of the vasoconstriction is scorred on a 0, 1, 2 scale, 2 being the most intense reaction. Both scores are used in constructing dose-response graphs according to methods set forth in an article by V. A. Place et al, infra. […]

[4] = system: Swiss-Webster mice; experiment: LD50, single subcutaneous injection, mortality observed for 21 days; format: in vivo, mouse; conditions: six mice, 25 mg/kg subcutaneous, 21 days
Protocol: (§1) Six Swiss-Webster mice (Simonsen) each weighing about 25 grams, were injected subcutaneously with a solution of methyl 6α,9α-difluoro-11β-hydroxy-16α-methyl-3-oxo-17α-n-propionyloxyandrosta-1,4-diene 17β-thiocarboxylate in […] having a concentration of 10 ml/kg. The dosage was 25 mg/kg or about 0.625 mg/mouse. The mice were observed daily for mortality for 21 days.

[5] = as above; format: in vivo, mouse; conditions: mouse, in vivo, sc; Swiss-Webster mice, subcutaneous, 21 days observation
Protocol: as §1

| SMILES | systemic activity relative to HC [1] | thymolytic activity [1] | topical potency relative to FA ([2]; alcohol solutions 1×10^-5 and 1×10^-6 g/ml, fluocinolone acetonide standard) | topical potency ([2]; in words) | therapeutic advantage [3] | mortality [4] | LD50 at 504 h [5] |
| --- | --- | --- | --- | --- | --- | --- | --- |
| CCC(=O)O[C@]1(C(=O)OC)[C@H](C)C[C@H]2[C@@H]3C[C@H](F)C4=C(F)C(=O)C=C[C@]4(C)[C@@]3(F)[C@@H](O)C[C@@]21C [methyl 4,6α,9α-trifluoro-11β-hydroxy-16α-methyl-3-oxo-17α-propionyloxyandrosta-1,4-diene 17β-carboxylate] | 10 times HC | slight activity in the dose range of hydrocortisone | 1-2 time FA | excellent topical potency | distinct therapeutic advantage | – | – |
| CCC(=O)O[C@]1(C(=O)SC)[C@H](C)C[C@H]2[C@@H]3C[C@H](F)C4=CC(=O)C=C[C@]4(C)[C@@]3(F)[C@@H](O)C[C@@]21C [methyl 6α,9α-difluoro-11β-hydroxy-16α-methyl-3-oxo-17α-n-propionyloxyandrosta-1,4-diene 17β-thiocarboxylate] | – | – | – | – | – | One mouse died | > 25 mg/kg |

From patent US4261986A, “4-Halo etianic acids and derivatives thereof” (Syntex (U.S.A.) Inc., priority 1979, dated 1981)
